The values below come from patent US6548242B2, “Process for the sterilization of biological compositions and the product thereby” (priority 1990, dated 2003).

The subject of data set [1] is platelets. The data set can be described thus: Platelet aggregation in response to collagen after treatment of platelet concentrate. As to conditions: for agg response: Platelet Conc., 50 μg/ml AMT + 57 J/cm^2 UVA; for Aggregation Response % Control / Agqregation Response % control: 25 μg/ml AMT. Type of data set: cell-based.
The subject of data set [2] is bacteriophage M13. Type of data set: cell-based.
Data set [3] has as its system cell-free vesicular stomatitis virus (VSV). The conditions noted are these: cited from earlier work.
Data set [4] has the same test system. It counts as cell-based.
For data set [5], the system named is platelets. The data set can be described thus: Platelet aggregation response to arachidonic acid and ADP after γ-irradiation of PCs. It counts as cell-based. As to conditions: 2 mM rutin.
In data set [6] the test system is platelets. The data set can be described thus: Survival of infused radiolabeled UVB-irradiated platelets. Type of data set: in vivo, dogs. The conditions noted are these: dog PCs, 36 mJ/cm^2 UVB in presence of 2 mM rutin, 51chromium label.
Data set [7] has as its system lymphocytes. Description: Lymphocyte inactivation, 3H thymidine uptake after mitogen stimulation. Type of data set: cell-based. The conditions noted are these: 15 Gy γ-irradiation.
Data set [8] relates to RBCCs. The data set can be described thus: Extracellular (plasma) potassium of stored RBCCs.
For data set [9], the system named is red blood cell concentrate. Description: Red cell hemolysis after X-irradiation of red blood cell concentrate. As to conditions: brominated hematoporphyrin derivative, 1 mm rutin.
The test system of data set [10] is encephalomyocarditis virus (EMC). It counts as cell-based.
For data set [11], the system named is cell-associated VSV. It counts as cell-based, vesicular stomatitis virus.
[12] abbreviates: 25 μg/ml AMT and 90 minutes of UVA, no flavonoid.
Setting [13] is: 25 μg/ml AMT and 90 minutes of UVA in presence of flavonoid, overnight storage.
[14] abbreviates: 50 μg/ml AMT, 90 minute UVA, air, +0.5 mM Rutin, experiments 1-5.
The mark [15] stands for this setting: flavonoid present, no AMT/UVA treatment, overnight storage.

Each structure is given as a SMILES string. “And” between values parts separate entries of the source, which are not always exact repeats. Equal entries are not always repeated. Where two headings read alike, the source gives them in different places.

In the case of `Cc1oc2c(C)c3oc(=O)cc(C)c3cc2c1CN` [AMT, 4′-aminomethyl-4,5′,8-trimethylpsoralen], in data set [1] (setting [12]), the “% Untreated Control - Extent of Aggregation Response to Collagen, treated” value came out at 44 % Untreated Control. Besides, the “% Untreated Control - Rate of Aggregation Response to Collagen, treated” value in data set [1] (setting [12]) amounted to 24 % Untreated Control. In data set [1] (quencher none), the agg response was no more than 30%. Besides, the “Aggregation Response % Control” value in [1] (platelet conc., 7.5 mW/cm^2 UVA 60 min, no quencher) is listed as 52 % Control; in data set [1] (platelet conc., 7.5 mW/cm^2 UVA 90 min, no quencher) it was 35 % Control. In addition, the “Agqregation Response % control” value in data set [1] (platelet conc., 11 mW/cm^2 UVA 30 min, no quencher) stood at 75 % control; in [1] (platelet conc., 11 mW/cm^2 UVA 60 min, no quencher) it was 52 % control. The “aggregation response to collagen” value in [1] (platelet conc., 100 μg/ml AMT, 90 min UVA, no quencher) is “no response at all”. Moreover, the “LOG10 VIRUS KILL M13” value in [2] is 3 LOG10 and 5 LOG10. In data set [2], the “inactivation of bacteriophage M13” value is reported as “at least 4 log 10”. Moreover, the results for the “inactivation of cell-free VSV” value in data set [3] and in data set [4] were no less than 6.0 log10 and “completely inactivated”, respectively. The “LOG10 VIRUS KILL VSV” value in data set [4] is recorded as “≧6 LOG10”.

Regarding `C[C@@H]1O[C@@H](OC[C@H]2O[C@@H](Oc3c(-c4ccc(O)c(O)c4)oc4cc(O)cc(O)c4c3=O)[C@H](O)[C@@H](O)[C@@H]2O)[C@H](O)[C@H](O)[C@H]1O` [rutin], in data set [1] (setting [13]), the “% Untreated Control - Extent of Aggregation Response to Collagen, treated” value is reported as 100/100 % Untreated Control and the “% Untreated Control - Rate of Aggregation Response to Collagen, treated” value is 100/100 % Untreated Control. Further, in data set [1] (setting [14]), the “Platelet aggregation, first value of pair (extent as in Table III)” value was 95 and 96/96 and 100 and 100/100 and 98; the “Platelet aggregation, second value of pair (rate as in Table III)” value is 90 and 96/96 and 84 and 100/100 and 95. Also, in [1] (0.35 mM rutin), the agg response was 85%. Moreover, in [1] (setting [15]), the “% Untreated Control - Extent of Aggregation Response to Collagen, untreated” value is recorded as 100/100 % Untreated Control and the “% Untreated Control - Rate of Aggregation Response to Collagen, untreated” value is 100/100 % Untreated Control. Moreover, the aggregation function entry in data set [1] (platelet conc., 25, 50 or 100 μg/ml AMT, 90 min UVA, 0.7 mM rutin) is “more than 80 % of the control”. In addition, the “LOG10 VIRUS KILL M13” value in data set [2] is 6 LOG10 and 3 LOG10 and 5 LOG10. Also, in data set [5] (50 Gy γ-irradiation, 3 day storage), the rate of aggregation was 80 % of the control. Besides, the Platelet aggregation in data set [5] (γ-irradiation 15-50 Gy, after 1 day) is reported as 95%. Further, the “Survival of UV-exposed donor platelets” value in data set [6] turned out to be 5 days. Further, in [4], the “LOG10 VIRUS KILL VSV” value was “≧6 LOG10”, the “Virus Kill (log10) VSV” value is “≧5.4 log10” and the “kill of VSV” value is “exceeded 5 log10”. Further, in [7] (PCs, independent of presence or concentration of rutin), the “3H thymidine uptake retained by irradiated lymphocytes” value worked out at 1.5%. In addition, the “3H thymidine uptake retained by irradiated lymphocytes” value in data set [7] (RBCCs, independent of presence or concentration of rutin (0.5, 1 or 2 mM)) is 1.5%. The “plasma K+” value in [8] (RBCC, AlPcS4 treatment then γ-irradiation 25 Gy, rutin present during γ-irradiation and storage, 2 days) was found to be 25 mM. Also, the “plasma K+” value in [8] (RBCC, AlPcS4 treatment then γ-irradiation 25 Gy, rutin present during γ-irradiation and storage, 7 days) was determined as 40 mM. Further, the “plasma K+” value in [8] (RBCCs, 50 Gy γ-irradiation, 2 mM rutin present during treatment) is 40 mM. In addition, the Extracellular potassium entry in [8] (RBCCs, γ-irradiation, 2 mM rutin) is “decreased to control levels”. The red cell hemolysis entry in data set [9] is “less than 2%”. For the same molecule, the “Virus Kill (log10) EMC” value in data set [10] is listed as “≧7.7 log10”. For the same molecule, in data set [11], the “inactivation of cell-associated VSV” value is roughly 6 log10.
